Data reported in patent US20250242031A1, “POLYMER SALTS FOR IMPROVED DRUG DELIVERY FROM AMORPHOUS SOLID DISPERSIONS” (Purdue Research Foundation, priority 2022, published 2025).
Values after ≈ are worked out from the molar mass of the structure shown.

Test: Drug amorphous solubility
Assay type: physicochemical
Details: aqueous buffer; miconazole, dissolution medium pH 6.8

- solubility: ~5 µg/mL (≈ 12 µM)
SMILES: Clc1ccc(COC(Cn2ccnc2)c2ccc(Cl)cc2Cl)c(Cl)c1 (stereo not shown) [miconazole]
